Laboratory results: patent US12121540B2, “CBL inhibitors and compositions for use in adoptive cell therapy” (Nurix Therapeutics, Inc., priority 2019, dated 2024)

Tested on: E.G7-OVA tumors
Test: Oral Cbl inhibitor treatment with expanded OT-1 cells in tumor-bearing mice
Format: in vivo, mouse
Procedure: Tumor volume was measured roughly every five days after cell transfer.
OT-1 cells were assessed in mouse blood 5 days and 20 days after transfer.

C[C@H]1CCCN(Cc2cc3c(c(C(F)(F)F)c2)CN(c2cccc([C@]4(c5nncn5C)C[C@@H](C)C4)c2)C3=O)C1 [compound 116]
Anti-tumor efficacy (tumor volume) of OT-1 cells (oral administration, OT-1 cells expanded with compound 103 plus IL-2, FIG. 18): enhanced the anti-tumor efficacy
Survival of mice (oral administration, OT-1 cells expanded with compound 103 plus IL-2, FIG. 19): enhanced survival
Persistence of OT-1 cells in mouse blood (oral, OT-1 cells expanded with Cbl inhibitor plus IL-2): longer persistence
Frequency of OT-1 cells in mouse blood (oral, OT-1 cells expanded with Cbl inhibitor plus IL-2, 5 and 20 days after transfer): increased frequency
